In PubChem BioAssay (NCI) one finds TGI and GI50 data, which are given here for ten molecules.

SMILES strings stand for the structures. “And” between values parts separate entries of the source, which are not always exact repeats. Identical values can stand only once.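 Method: 48-hour compound exposure of cells in 96-well plates, five concentrations, linear interpolation of endpoints. GI50 is the concentration that inhibits growth by half. TGI marks complete inhibition of growth.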

Assay in all cases: NCI tumour cell line growth inhibition, 48 h
Assay [1] deals with MDA-N.
For assay [2], the system named is SR leukemia.
Assay [3] concerns M19-MEL melanoma.
Assay [4] concerns P388 leukemia.
Assay [5] relates to HOP-18 NSCLC.
Assay [6] deals with SN12K1 renal.
Assay [7] deals with RXF-631 renal.
Assay [8] has as its system DLD-1 colon.
For assay [9], the system named is 786-0 renal.
Assay [10] has as its system DMS 273 small cell lung.
In assay [11] the test system is XF 498 CNS.

The molecule `CCOC(=O)c1c(NC(=S)NCc2ccccc2)sc2c1CCN(C)C2` came in with a TGI in assay [1] greater than 100 µM.
Consider `CN1CCN(c2ccc3nc(-c4ccc(OCCCN5C(=O)c6cccc7cccc(c67)C5=O)cc4)[nH]c3c2)CC1`, for which, in assay [2], the GI50 was 2.69 µM and the TGI was found to be 5.94 µM.
As to `COc1cccc2c1C(=O)c1c(O)c3c(c(O)c1C2=O)C[C@@](O)(C(C)=O)C[C@@H]3OC1CC(N)C(O)C(C)O1` (stereo not given in full), the GI50 was greater than 5.01 µM in assay [3], greater than 5.01 µM in assay [5], 0.212 µM in assay [7] and greater than 5.01 µM in assay [8]. Moreover, the TGI is 0.383 µM in [4]; 0.239 µM and 0.908 µM in assay [2]; 0.215 µM in assay [6]; 3.12 µM and 4.25 µM in assay [7]; 5.53 µM and 6.33 µM and > 5.01 µM in assay [8].
Turning to `NC(=O)c1cc2ccccc2c(N=Nc2ccccc2)c1O`, the TGI in assay [1], in assay [9] and in assay [2] was greater than 100 µM each time.
Consider `CCP(=O)(CC)C(Cl)(Cl)C(=O)NC`, for which the TGI in assay [1] and in [2] was greater than 100 µM each time.
Consider `N#Cc1ccc(Nc2nc3nc[nH]c3c(=O)[nH]2)cc1`, for which the TGI in [1], in [9] and in [2] was greater than 100 µM each time.
For the molecule `CC(=O)OC1CC2(O)C(CCC3(C)C(c4ccc(=O)oc4)CCC32O)C2(C)CCC(O)C=C12` (stereo not given), the GI50 in assay [3] was 0.0375 µM; in assay [4] it was 63.8 µM; in [10] it was 0.0375 µM; in assay [11], 0.0138 µM; in assay [5], 0.0375 µM; in assay [6], 0.0375 µM. The GI50 in assay [8] is 0.0152 µM. Besides, the TGI in assay [3] was 0.187 µM and 0.111 µM; in assay [4], 245 µM; in assay [10], 0.0714 µM and 0.0478 µM; in assay [11] it was 0.026 µM and 0.0553 µM; in [5], 0.075 µM and 0.436 µM; in [6] it was 0.119 µM and 0.393 µM. Further, the TGI in assay [8] is 0.107 µM and 0.0583 µM.
On to `O=c1c(-c2ccccc2)c[nH]c2cc([N+](=O)[O-])c(/C(Cl)=C/c3ccccc3)cc12`, for which the TGI in [3] is greater than 42.5 µM; in assay [4], greater than 31.6 µM; in assay [10], greater than 38.7 µM; in assay [11] it was 23.7 µM; in [5], 23.1 µM; in assay [6], greater than 41.7 µM. Also, the TGI in assay [8] amounted to 13.6 µM.
For `Cc1c2cc[n+](C)cc2c(C)c2c1[nH]c1ccc(O)cc12`, the TGI in assay [3] is 48 µM; in assay [1] it was greater than 100 µM; in assay [4], 38.7 µM; in [10], greater than 78.6 µM; in assay [5] it was greater than 94.5 µM; in assay [6], greater than 82.7 µM. Besides, the TGI in assay [8] was greater than 100 µM.
Regarding `Cc1c2cc[n+](C)cc2c(COC2OC(CO)C(O)C2O)c2c3ccccc3n(C)c12` (stereo not given), the TGI in assay [3] was greater than 100 µM; in assay [4], greater than 100 µM; in assay [10], greater than 100 µM; in [11], greater than 97.3 µM; in assay [5] it was greater than 100 µM; in [6] it was greater than 100 µM. Also, the TGI in [8] was greater than 100 µM.
